# According to patent US20170370908A1, “BRAIN IN VITRO MODELS, DEVICES, SYSTEMS, AND METHODS OF USE THEREOF” (President and Fellows of Harvard College, priority 2014, published 2017):
# Test system: pericytes
# Assay: Muscular thin film (MTF) assay of pericyte contraction response to vasoactive agents
# Format: cell-based
# Details: pericytes on muscular thin films treated with vasoactive agent
# From the text: FIG. 6 illustrates an assay used to measure stress applied by pericytes treated with the vasoactive agent, endothelin.
# FIG. 7 illustrates stress measurement applied by pericytes treated with vasoactive agent endothelin.
smiles,measurement,value
CC[C@H](C)[C@H](NC(=O)[C@H](CC(=O)O)NC(=O)[C@H](CC(C)C)NC(=O)[C@H](Cc1c[nH]cn1)NC(=O)[C@@H]1CSSC[C@H](N)C(=O)N[C@@H](CO)C(=O)N[C@H]2CSSC[C@H](NC(=O)[C@H](CCC(=O)O)NC(=O)[C@H](CCCCN)NC(=O)[C@H](CC(=O)O)NC(=O)[C@H](CCSC)NC(=O)[C@H](CC(C)C)NC(=O)[C@H](CO)NC(=O)[C@H](CO)NC2=O)C(=O)N[C@@H](C(C)C)C(=O)N[C@@H](Cc2ccc(O)cc2)C(=O)N[C@@H](Cc2ccccc2)C(=O)N1)C(=O)N[C@H](C(=O)N[C@@H](Cc1c[nH]c2ccccc12)C(=O)O)[C@@H](C)CC [endothelin],contraction response of pericytes (stress applied by pericytes),induces pericyte contraction
